Test results: US11344548B2, “Analogs of 3,5-dihydroxypentanoate for bone formation” (KAOHSIUNG MEDICAL UNIVERSITY, priority 2015, dated 2022)
Read-outs that look alike come from different tables or passages of the source. One block for each molecule: values may come before it.

Experiments:
D1 cells [1] = assay type: cell-based
Protocol: (§1) The D1 cells, purchased from American Type Culture Collection, were plated in 48-well plates at a density of 3×10^4 cells/well. Once confluence was obtained, the cells were cultured in bone medium (BM, prepared with DMEM, 10% FBS, 100 U/mL penicillin, 100 μg/mL streptomycin, […] ascorbic acid, 1% NEAA, 1.5 g sodium bicarbonate) in the presence of compound 1. After 3 days, BM was replaced with an osteogenesis induction medium (OIM prepared with BM, 10^−2 M β-glycerophosphate and 10^−7 M dexamethasone). […] The medium was changed every 2 days. For the quantitative value of mineralization, the cells were washed with PBS triplex and fixed with 10% formalin for 30 minutes at room temperature. Thereafter, the cells were washed with deionized water triplex, and then stained with Alizarin Red S solution ([…], 80 mM, pH 4) for 10 minutes at room temperature. The cells were washed with deionized water triplex and dried overnight at room temperature. The Alizarin Red S was released from the cell matrix by being mixed with 10% acetic acid(aq) for 30 minutes. The concentration of Alizarin Red S was determined by measuring the absorbance at 415 nm.
The abilities of compounds 4˜11 to induce cell mineralization were evaluated followed the same method above, only remove dexamethasone from the recipe of osteogenesis induction medium.

Solubility comparison = assay type: physicochemical; details: compared with simvastatin
HMG-CoA reductase = target: T1, HMG-CoA reductase (Homo sapiens, UniProt P04035); test: HMG-CoA reductase inhibition; assay type: biochemical; details: for IC50: HMG-CoA reductase 17.4 nM final, absorbance 340 nm; for effective inhibitory concentration compared with simvastatin: HMG-CoA reductase
T1 sequence (P04035 426-888 limits assumed): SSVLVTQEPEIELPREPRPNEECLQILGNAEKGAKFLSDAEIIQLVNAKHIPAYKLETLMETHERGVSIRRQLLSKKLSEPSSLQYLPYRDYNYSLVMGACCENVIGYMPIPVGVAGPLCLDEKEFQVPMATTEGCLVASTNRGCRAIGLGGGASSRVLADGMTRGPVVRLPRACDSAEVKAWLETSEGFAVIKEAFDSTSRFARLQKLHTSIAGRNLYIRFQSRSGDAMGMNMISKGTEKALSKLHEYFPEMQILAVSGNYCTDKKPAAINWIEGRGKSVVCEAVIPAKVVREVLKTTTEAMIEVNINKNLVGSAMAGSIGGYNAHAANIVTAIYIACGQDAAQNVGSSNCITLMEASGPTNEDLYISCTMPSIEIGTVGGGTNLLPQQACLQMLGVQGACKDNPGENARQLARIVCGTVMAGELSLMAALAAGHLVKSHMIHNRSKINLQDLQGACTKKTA
Protocol: HMG-CoA Reductase Inhibition
A 0.1 M phosphate buffer containing 100 μM […], 330 μM NADPH, 2% DMSO and 1 mg/mL BSA was firstly prepared. Compounds 1 and 4˜11 were added dissolved in phosphate buffer at various concentrations, then added HMG-CoA reductase (the final concentration is 17.4 nM) and mixed for 5 minutes. The absorbance of the solution was measured at 340 nm. The IC50 values were analyzed via nonlinear least-squares using Sigma 10 to determine the HMG-CoA reductase inhibition of compounds.

D1 cells [2] = test: Cytotoxicity MTT assay on D1 cells; assay type: cell-based, rat; details: for IC50: Rattus norvegicus, 72 h, MTT, 3 days
Protocol: D1 cell is more sensitive than hADSC cell by drug treatment.
The cytotoxicity of compounds 4˜11 was analyzed using MTT assay. D1 cells were cultured to an initial culture density of 5×10^3 cells per well in a bone medium. The bone medium was a DMEM medium containing 10% Fetal bovine serum (FBS), 100 U/mL penicillin, 100 μg/mL streptomycin, […] ascorbic acid, 1% non-essential amino acids (NEAA) and 1.5 g sodium bicarbonate. After the cells were seeded, the bone medium with compounds 4˜11 respectively was set as the experimental group, the bone medium without compound was set as the blank test group, and all were cultured at 37° C. for 3 days. The MTT agent was added to the culture medium for 3 hours, then the medium was removed and the cells were washed with PBS, and 100 μL of DMSO was added to the wells to promote the dissolution of formazan. The DMSO solution containing formazan was measured using UV spectrophotometer at 595 nm wavelength, and the survival of cells was judged by the value of absorbance.

D1 cells [3] = test: Induction of mineralization (Alizarin Red S), FIG. 7; assay type: cell-based, rat
Protocol: Following the tests above, the ability of inducing mineralization of the compounds to D1 cells was tested.
as §1

zebrafish [4] = test: Bone formation induced by test compounds in zebrafish (calcein staining); assay type: in vivo; details: zebrafish larvae, 0.32 μM, calcein stain, FIG. 9(c)
Protocol: The non-oligopeptide derivative 7 which had the most outstanding overall performance was selected from the above experiments. In the study for increasing the bone mass of zebrafish, when 0.1 or 1 μM of compound 7 were treated, both can promote bone formation in the zebrafish, and the increase range was between 30% and 50% compared with the non-administration group.
Zebrafish larvae at 2 dpf were treated with test compounds (0.32 μM) for 6 days in a 24-well plate. At 7 dpf, the fish were transferred to 6-cm dishes (8 fish/dish) for bone staining using calcein solution. The calcein solution was prepared at 0.2% by dissolving 2 g of calcein powder (Sigma Chemical, St. Louis, Mo.) in 1 liter of deionized water. The immersion time was 10 minutes at 7 dpf. After the immersion, the embryos were rinsed a number of times in fresh water, and then allowed to stand for 10 mins to allow the excess stain diffusion from the larvae tissue. The embryos were then euthanized in tricaine-methanesulfonate (MS 222) and mounted on depression glass slides with methyl-cellulose (3%). […] Each image was taken at 200 mini-seconds, then the fluorescence of the calcein stain images was calculated using NIH Image J (NIH open software with Macbiophotonics plugins). […]

[5] = test system: human adipose stem cells (hADSC); test: Cytotoxicity MTS assay on human adipose stem cells
Protocol: Statins are known agents that induced stem cells to be osteogenesis.
In a 96-well plate, human adipose stem cells (hADSC) were cultured to an initial culture density of 6×10^3 cells per well in K medium (Keratinocyte-SFM, GIBCO-Invitrogen Corporation). […] The MTS agent was added to the culture medium for 3 hours, then the medium was removed and the cells were washed with PBS (phosphate buffered saline), and 100 μL of DMSO (dimethyl sulfoxide) was added to the wells to promote the dissolution of formazan. The DMSO solution containing formazan was measured using UV spectrophotometer at 490 nm wavelength, and the survival of cells was judged by the value of absorbance.

zebrafish [6] = test: Bone-targeting of test compounds in zebrafish; assay type: in vivo; details: living zebrafish, 3.2 μM, fluorescence microscope, FIG. 9(a), 9(b)
Protocol: Calcein, which is a known staining dye for the mineral in animals, was used as a positive control group.
The AB strain of wild-type zebrafish was used for this study. Embryos were collected after natural spawning, staged according to standard criteria, and raised synchronously at 28.5° C. in Hank's buffer (13.7 mM NaCl, 540 M KCl, 25 μM Na2HPO4, 44 μM KH2PO4, 300 μM CaCl2, 100 μM MgSO4, 420 μM NaHCO3, pH 7.4). Zebrafish larvae at 2 dpf were exposed to test compounds (3.2 μM) for 3 days in a 24-well plate. At 7 dpf, the fish were anesthetized using tricaine-methanesulfonate (MS 222) and mounted on depression glass slides with methyl-cellulose (3%), and the images of the zebrafish were acquired using a Leica DM-6000 CS fluorescence microscope (Leica Instruments Inc., Wetzlar, Germany). All of the images were acquired using a SPOT Xplorer Digital camera (Diagnostic Instruments, Inc., Sterling Heights, Mich., USA). Each image was taken at 60-sec.

[7] = Combination with HAP monitored by fluorescent microscope; assay type: physicochemical; details: FIG. 6
From the text: If compound 1-F is combined with HAP, it can be monitored using a fluorescent microscope.

zebrafish [8] = details: reported by Fleming; cited from earlier work

Compound: CCC(C)(C)C(=O)O[C@H]1C[C@@H](C)C=C2C=C[C@H](C)[C@H](CC[C@@H](O)C[C@@H](O)CC(=O)NCCOCCO)[C@H]21 [Compound 7]
induction of cell mineralization (D1 cells [1]; 1 μM, Day 9, FIG. 8(a)): clearly induced cell mineralization
induction of cell mineralization (D1 cells [1]; 1 μM, Day 11, FIG. 8(b)): excellent ability to induce cell mineralization
induction of cell mineralization (D1 cells [1]; 4 μM, FIG. 8(c)): obvious ability to induce cell mineralization
solubility (Solubility comparison): higher than simvastatin
IC50 (HMG-CoA reductase): 0.171 ± 0.0092 µM
IC50 compared with simvastatin (D1 cells [2]): 83 fold
IC50 (D1 cells [2]): 269.1 ± 1.04 µM

IC50 (HMG-CoA reductase): 21.6 µM
Compound: CCCNC(=O)C[C@H](O)C[C@H](O)CC[C@@H]1[C@@H]2C(=C[C@H](C)C[C@@H]2OC(=O)C(C)(C)CC)C=C[C@@H]1C [Compound 11]
IC50 (D1 cells [2]): 94.1 ± 10.6 µM

Compound: CCC(C)(C)C(=O)O[C@H]1C[C@@H](C)C=C2C=C[C@H](C)[C@H](CC[C@@H](O)C[C@@H](O)CC(=O)N[C@@H](CCCCNC(=O)[C@H](CC(=O)O)NC(=O)[C@H](CC(=O)O)NC(=O)[C@H](CC(=O)O)NC(=O)[C@H](CC(=O)O)NC(=O)[C@H](CC(=O)O)NC(=O)[C@H](CC(=O)O)NC(=O)[C@H](CCCCNC(=S)Nc3ccc4c(c3)C(=O)OC43c4ccc(O)cc4Oc4cc(O)ccc43)NC(=O)OCCOCCOCCOCCOCCOCCOCCOCCOCCOCCOCCOC)C(=O)NCC(=O)O)[C@H]21 [Compound 1-F]
induction of mineralization (D1 cells [3]; 15 μM): can induce mineralization of D1 cells
induction of mineralization (D1 cells [3]; over 20 μM): can induce mineralization of D1 cells
promotion of bone formation compared with the non-administration group (control) (zebrafish [4]): up to 50%
IC50 compared with simvastatin ([5]; cytotoxicity, hADSC): 300 fold
effective inhibitory concentration compared with simvastatin (HMG-CoA reductase): 500 fold
bone-targeting (fluorescence on the bones) (zebrafish [6]): targets the bones successfully
combination with HAP [7]: combines on the surface of HAP

IC50 (HMG-CoA reductase): 0.95 ± 0.0801 µM
Compound: CCC(C)(C)C(=O)O[C@H]1C[C@@H](C)C=C2C=C[C@H](C)[C@H](CC[C@@H](O)C[C@@H](O)CC(=O)NN)[C@H]21 [Compound 8]
IC50 (D1 cells [2]): 106 ± 3.3 µM

effective inhibitory concentration compared with simvastatin (HMG-CoA reductase): 500 fold
IC50 (HMG-CoA reductase): > 30 µM
Compound: CCC(C)(C)C(=O)O[C@H]1C[C@@H](C)C=C2C=C[C@H](C)[C@H](CC[C@@H](O)C[C@@H](O)CC(=O)NCc3ccccn3)[C@H]21 [Compound 9]
IC50 (D1 cells [2]): 97.3 ± 7.9 µM

Compound: O=C(O)CN(CC(=O)O)Cc1cc2c(cc1O)Oc1cc(O)c(CN(CC(=O)O)CC(=O)O)cc1C21OC(=O)c2ccccc21 [Calcein, reference compound]
bone-targeting (fluorescence on the bones) (zebrafish [6]): fluorescent staining on the bone can be observed

Compound: CCC(C)(C)C(=O)O[C@H]1C[C@@H](C)C=C2C=C[C@H](C)[C@H](CC[C@@H]3C[C@@H](O)CC(=O)O3)[C@H]21 [Simvastatin, (1S,3R,7S,8S,8aR)-8-{2-[(2R,4R)-4-hydroxy-6-oxotetrahydro-2H-pyran-2-yl]ethyl}-3,7-dimethyl-1,2,3,7,8,8a-hexahydronaphthalen-1-yl2,2-dimethylbutanoate, reference compound]
promotion of bone formation compared with the non-administration group (control) (zebrafish [4]): did not promote bone formation
IC50 ([5]; Homo sapiens, 72 h): 3.25 ± 0.31 µM
IC50 (D1 cells [2]): 3.25 ± 0.31 µM
bone growth of zebrafish (zebrafish [8]): does not benefit in the bone growth of zebrafish

Compound: CCC(C)(C)C(=O)O[C@H]1C[C@@H](C)C=C2C=C[C@H](C)[C@H](CC[C@@H](O)C[C@@H](O)CC(=O)O)[C@H]21 [Compound 4, simvastatin acid, reference compound]
induction of cell mineralization (D1 cells [1]; 4 μM, FIG. 8(c)): can only induce mineralization effectively under a concentration of 4 μM
IC50 (HMG-CoA reductase): 0.263 ± 0.0834 µM
IC50 (D1 cells [2]): 29.4 ± 1.02 µM

Compound: CCC(C)(C)C(=O)O[C@H]1C[C@@H](C)C=C2C=C[C@H](C)[C@H](CC[C@@H](O)C[C@@H](O)CC(=O)NCCO)[C@H]21 [Compound 5]
induction of cell mineralization (D1 cells [1]; 1 μM, Day 9, FIG. 8(a)): clearly induced cell mineralization
induction of cell mineralization (D1 cells [1]; 1 μM, Day 11, FIG. 8(b)): excellent ability to induce cell mineralization
IC50 (HMG-CoA reductase): 1.02 ± 0.0509 µM
IC50 (D1 cells [2]): 117 ± 8.07 µM

Compound: CCC(C)(C)C(=O)O[C@H]1C[C@@H](C)C=C2C=C[C@H](C)[C@H](CC[C@@H](O)C[C@@H](O)CC(=O)NCCCO)[C@H]21 [Compound 6]
induction of cell mineralization (D1 cells [1]; 1 μM, Day 11, FIG. 8(b)): excellent ability to induce cell mineralization
IC50 (HMG-CoA reductase): 1.13 ± 0.0895 µM
IC50 (D1 cells [2]): 161 ± 3.76 µM

IC50 (HMG-CoA reductase): 26.6 µM
Compound: C=CCNC(=O)C[C@H](O)C[C@H](O)CC[C@@H]1[C@@H]2C(=C[C@H](C)C[C@@H]2OC(=O)C(C)(C)CC)C=C[C@@H]1C [Compound 10]
IC50 (D1 cells [2]): 92.2 ± 2.1 µM
